From patent publication US20120122860A1, “SOLID FORMS OF SULFONAMIDES AND AMINO ACIDS” (Plexxikon, Inc., priority 2009, published 2012)
pIC50: −log10 of the molar value.

Experiments:
B-Raf = B-Raf (Homo sapiens, UniProt P15056); assay: Kinase activity assay, B-Raf; format: biochemical; conditions: read-out: activity toward kinase B-Raf, IC50
B-Raf V600E = B-Raf V600E (Homo sapiens, UniProt P15056, V600E); assay: Kinase activity assay, B-Raf V600E; format: biochemical; conditions: read-out: activity toward kinase B-Raf V600E, IC50
Btk = Btk (Homo sapiens, UniProt Q06187); assay: Kinase activity assay, Btk
Fms = Fms (Homo sapiens, UniProt P07333); assay: Kinase activity assay, Fms
Kdr = Kdr (Homo sapiens, UniProt P35968); assay: Kinase activity assay, Kdr
Kit = Kit (Homo sapiens, UniProt P10721); assay: Kinase activity assay, Kit
Src = Src (Homo sapiens, UniProt P12931); assay: Kinase activity assay, Src
TEC = target: T1, TEC (Homo sapiens, UniProt P42680); assay: Kinase activity assay, TEC
T1 sequence (P42680 1-631): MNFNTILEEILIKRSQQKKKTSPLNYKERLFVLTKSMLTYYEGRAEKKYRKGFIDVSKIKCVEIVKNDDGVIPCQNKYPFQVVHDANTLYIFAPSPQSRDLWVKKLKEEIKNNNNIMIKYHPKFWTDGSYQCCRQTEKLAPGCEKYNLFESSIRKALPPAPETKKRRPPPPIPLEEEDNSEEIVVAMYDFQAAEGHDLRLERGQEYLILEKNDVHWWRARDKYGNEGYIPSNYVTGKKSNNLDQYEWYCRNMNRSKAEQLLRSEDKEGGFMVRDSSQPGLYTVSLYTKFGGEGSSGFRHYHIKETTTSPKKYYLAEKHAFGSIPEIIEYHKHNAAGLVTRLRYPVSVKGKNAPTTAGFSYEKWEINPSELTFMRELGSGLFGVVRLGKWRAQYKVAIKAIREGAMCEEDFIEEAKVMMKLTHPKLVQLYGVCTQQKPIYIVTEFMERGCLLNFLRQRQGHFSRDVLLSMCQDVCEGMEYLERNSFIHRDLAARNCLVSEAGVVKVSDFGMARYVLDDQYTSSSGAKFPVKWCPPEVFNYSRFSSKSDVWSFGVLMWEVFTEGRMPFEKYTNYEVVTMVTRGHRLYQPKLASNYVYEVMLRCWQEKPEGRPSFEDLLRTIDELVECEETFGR

A-Raf = target: T2, A-Raf (Homo sapiens, UniProt P10398); assay: Kinase activity assay, A-Raf
T2 sequence (P10398 1-606): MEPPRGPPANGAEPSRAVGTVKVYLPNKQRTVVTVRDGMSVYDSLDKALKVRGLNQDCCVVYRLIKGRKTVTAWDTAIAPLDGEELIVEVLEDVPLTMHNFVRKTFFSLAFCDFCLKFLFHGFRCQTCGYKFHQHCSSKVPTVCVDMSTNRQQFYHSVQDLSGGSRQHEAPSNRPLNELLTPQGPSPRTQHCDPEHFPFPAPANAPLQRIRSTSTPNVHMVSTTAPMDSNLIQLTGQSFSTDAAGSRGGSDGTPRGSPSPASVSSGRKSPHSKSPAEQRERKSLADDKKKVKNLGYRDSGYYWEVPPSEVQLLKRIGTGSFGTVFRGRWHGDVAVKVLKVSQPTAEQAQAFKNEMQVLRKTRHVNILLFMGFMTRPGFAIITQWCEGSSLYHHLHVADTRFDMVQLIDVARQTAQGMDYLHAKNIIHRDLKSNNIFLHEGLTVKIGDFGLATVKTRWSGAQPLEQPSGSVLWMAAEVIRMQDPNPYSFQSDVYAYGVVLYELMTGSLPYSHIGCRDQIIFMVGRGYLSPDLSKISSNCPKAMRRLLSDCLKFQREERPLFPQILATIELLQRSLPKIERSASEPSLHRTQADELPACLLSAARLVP

C-Raf = C-Raf (Homo sapiens, UniProt P04049); assay: Kinase activity assay, C-Raf
MAP4K4 = MAP4K4 (Homo sapiens, UniProt O95819); assay: Kinase activity assay, MAP4K4
PI3Kα = PI3Kα (Homo sapiens, UniProt P42336); assay: Kinase activity assay, PI3Kα

Measured: pIC50

Chain of Kdr (P35968 20-1356): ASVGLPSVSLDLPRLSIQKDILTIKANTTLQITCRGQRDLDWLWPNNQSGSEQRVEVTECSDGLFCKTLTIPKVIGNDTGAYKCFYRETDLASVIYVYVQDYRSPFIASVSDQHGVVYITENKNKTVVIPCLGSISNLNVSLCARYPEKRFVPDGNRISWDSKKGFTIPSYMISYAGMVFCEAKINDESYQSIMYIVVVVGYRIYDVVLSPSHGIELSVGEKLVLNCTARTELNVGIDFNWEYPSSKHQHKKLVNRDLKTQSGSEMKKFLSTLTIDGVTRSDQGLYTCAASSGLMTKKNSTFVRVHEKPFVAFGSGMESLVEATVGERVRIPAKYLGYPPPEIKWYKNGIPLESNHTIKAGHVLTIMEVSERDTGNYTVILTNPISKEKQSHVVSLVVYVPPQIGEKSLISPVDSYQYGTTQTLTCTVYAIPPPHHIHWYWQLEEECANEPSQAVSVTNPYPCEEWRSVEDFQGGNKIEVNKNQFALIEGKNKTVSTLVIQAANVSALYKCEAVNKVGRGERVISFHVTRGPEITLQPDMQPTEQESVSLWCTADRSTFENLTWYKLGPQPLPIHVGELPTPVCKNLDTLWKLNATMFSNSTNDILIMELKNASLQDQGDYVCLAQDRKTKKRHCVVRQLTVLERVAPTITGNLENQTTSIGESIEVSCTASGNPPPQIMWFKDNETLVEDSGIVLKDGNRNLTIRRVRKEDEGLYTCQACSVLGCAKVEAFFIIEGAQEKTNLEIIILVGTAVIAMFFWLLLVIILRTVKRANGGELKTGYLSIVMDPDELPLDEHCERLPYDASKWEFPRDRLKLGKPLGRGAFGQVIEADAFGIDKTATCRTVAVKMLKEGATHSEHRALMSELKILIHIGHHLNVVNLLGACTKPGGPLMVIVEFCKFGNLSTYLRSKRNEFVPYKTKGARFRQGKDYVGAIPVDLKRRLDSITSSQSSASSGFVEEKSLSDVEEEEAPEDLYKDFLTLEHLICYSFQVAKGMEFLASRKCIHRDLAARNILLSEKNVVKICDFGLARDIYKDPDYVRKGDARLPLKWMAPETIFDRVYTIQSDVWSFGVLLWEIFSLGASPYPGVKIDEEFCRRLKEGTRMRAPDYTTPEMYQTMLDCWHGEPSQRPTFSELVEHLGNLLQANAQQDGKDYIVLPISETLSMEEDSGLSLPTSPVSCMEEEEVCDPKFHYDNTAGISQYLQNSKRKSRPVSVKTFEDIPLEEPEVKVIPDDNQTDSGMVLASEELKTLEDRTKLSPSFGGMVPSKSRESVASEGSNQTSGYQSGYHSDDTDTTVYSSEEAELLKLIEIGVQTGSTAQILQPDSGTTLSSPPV
Chain of B-Raf (P15056 whole entry): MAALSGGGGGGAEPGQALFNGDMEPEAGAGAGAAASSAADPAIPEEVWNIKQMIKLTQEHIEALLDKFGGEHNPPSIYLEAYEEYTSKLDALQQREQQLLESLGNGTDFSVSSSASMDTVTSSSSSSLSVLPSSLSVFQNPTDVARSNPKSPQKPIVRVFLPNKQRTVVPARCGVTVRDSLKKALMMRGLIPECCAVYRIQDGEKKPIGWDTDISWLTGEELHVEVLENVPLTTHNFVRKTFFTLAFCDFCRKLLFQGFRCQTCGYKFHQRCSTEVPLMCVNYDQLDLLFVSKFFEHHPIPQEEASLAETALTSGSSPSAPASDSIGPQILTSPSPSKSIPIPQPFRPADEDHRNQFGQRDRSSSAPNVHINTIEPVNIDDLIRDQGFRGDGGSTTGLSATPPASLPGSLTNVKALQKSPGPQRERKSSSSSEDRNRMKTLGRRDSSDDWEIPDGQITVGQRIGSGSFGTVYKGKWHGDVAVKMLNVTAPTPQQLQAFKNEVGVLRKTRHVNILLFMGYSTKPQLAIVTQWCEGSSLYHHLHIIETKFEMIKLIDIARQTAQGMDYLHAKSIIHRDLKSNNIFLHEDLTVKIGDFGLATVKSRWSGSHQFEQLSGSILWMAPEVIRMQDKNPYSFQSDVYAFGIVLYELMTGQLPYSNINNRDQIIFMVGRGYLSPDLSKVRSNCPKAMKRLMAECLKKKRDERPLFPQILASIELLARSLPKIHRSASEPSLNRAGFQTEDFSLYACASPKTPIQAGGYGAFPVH
Chain of MAP4K4 (O95819 whole entry): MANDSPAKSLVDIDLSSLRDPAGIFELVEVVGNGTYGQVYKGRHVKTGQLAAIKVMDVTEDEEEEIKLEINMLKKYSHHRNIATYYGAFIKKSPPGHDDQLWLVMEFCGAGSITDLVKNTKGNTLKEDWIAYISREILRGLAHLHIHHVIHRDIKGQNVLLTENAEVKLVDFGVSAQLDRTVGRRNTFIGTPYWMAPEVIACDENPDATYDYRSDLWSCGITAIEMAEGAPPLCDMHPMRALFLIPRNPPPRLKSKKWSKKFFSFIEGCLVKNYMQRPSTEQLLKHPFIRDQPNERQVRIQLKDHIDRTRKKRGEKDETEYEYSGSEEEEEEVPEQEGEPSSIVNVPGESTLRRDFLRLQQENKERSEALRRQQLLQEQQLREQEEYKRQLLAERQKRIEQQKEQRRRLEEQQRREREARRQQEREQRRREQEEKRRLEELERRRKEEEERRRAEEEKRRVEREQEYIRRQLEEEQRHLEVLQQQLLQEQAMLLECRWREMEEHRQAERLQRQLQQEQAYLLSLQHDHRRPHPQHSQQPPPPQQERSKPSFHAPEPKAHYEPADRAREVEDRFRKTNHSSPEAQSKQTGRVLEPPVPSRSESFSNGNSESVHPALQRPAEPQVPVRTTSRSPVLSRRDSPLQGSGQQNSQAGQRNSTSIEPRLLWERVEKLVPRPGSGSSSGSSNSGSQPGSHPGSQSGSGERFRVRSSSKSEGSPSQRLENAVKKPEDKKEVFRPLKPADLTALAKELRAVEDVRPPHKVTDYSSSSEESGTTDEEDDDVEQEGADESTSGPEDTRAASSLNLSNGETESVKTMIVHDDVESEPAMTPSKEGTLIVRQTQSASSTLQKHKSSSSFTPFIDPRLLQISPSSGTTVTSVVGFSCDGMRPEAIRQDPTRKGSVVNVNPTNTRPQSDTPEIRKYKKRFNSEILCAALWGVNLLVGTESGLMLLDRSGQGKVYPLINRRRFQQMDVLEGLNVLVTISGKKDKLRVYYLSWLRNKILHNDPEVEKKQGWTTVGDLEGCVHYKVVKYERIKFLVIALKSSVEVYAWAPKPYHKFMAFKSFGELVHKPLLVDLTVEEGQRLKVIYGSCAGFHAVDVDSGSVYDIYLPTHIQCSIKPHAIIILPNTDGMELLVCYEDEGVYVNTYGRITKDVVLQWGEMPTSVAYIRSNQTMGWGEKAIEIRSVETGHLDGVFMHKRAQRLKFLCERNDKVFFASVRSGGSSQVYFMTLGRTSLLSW
Chain of Src (P12931 whole entry): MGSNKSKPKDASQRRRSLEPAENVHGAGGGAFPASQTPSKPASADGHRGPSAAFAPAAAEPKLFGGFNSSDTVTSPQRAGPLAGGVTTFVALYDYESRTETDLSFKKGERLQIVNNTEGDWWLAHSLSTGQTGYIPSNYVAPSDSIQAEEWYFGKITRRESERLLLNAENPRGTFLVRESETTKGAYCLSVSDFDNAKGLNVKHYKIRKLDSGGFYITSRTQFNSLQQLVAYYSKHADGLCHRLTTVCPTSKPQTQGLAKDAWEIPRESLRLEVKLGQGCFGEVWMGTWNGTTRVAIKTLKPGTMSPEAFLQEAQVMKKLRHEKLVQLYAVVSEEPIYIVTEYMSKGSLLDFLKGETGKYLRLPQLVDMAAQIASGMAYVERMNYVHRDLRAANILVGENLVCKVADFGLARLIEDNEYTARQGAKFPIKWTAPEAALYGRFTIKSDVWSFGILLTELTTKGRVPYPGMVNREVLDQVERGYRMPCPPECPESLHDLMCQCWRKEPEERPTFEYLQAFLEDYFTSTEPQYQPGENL
Chain of C-Raf (P04049 whole entry): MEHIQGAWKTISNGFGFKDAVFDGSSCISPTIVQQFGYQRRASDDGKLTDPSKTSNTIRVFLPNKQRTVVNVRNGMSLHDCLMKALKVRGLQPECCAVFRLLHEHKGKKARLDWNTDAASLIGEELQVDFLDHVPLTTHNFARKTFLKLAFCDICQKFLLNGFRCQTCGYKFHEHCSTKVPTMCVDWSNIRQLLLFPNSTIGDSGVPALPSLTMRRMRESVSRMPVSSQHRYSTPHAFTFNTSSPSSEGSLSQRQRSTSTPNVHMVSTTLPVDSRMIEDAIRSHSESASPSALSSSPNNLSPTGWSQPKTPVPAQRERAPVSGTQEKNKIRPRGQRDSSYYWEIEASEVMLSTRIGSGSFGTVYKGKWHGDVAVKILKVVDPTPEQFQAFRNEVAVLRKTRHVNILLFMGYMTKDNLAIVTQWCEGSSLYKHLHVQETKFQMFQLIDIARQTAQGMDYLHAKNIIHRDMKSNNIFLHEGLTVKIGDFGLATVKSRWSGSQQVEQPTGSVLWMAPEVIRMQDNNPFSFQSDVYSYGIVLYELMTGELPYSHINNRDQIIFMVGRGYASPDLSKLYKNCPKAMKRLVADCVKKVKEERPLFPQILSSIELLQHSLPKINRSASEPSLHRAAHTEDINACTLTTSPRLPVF
Chain of B-Raf V600E (P15056 whole entry V600E): as the sequence (P15056 whole entry) above, with V600E counted along it

COc1ccnc2[nH]cc(C(=O)c3c(F)ccc(NS(=O)(=O)c4cc(F)ccc4F)c3F)c12 [P-2022, N-[2,4-Difluoro-3-(4-methoxy-1H-pyrrolo[2,3-b]pyridine-3-carbonyl)-phenyl]-2,5-difluoro-benzenesulfonamide]
not listed: PI3Kα
≥ 5.00: all other assays above

COc1ncc(-c2cnc3[nH]cc(C(=O)c4c(F)ccc(NS(=O)(=O)c5ccc(F)cc5)c4F)c3c2)cn1 [P-2040, N-{2,4-Difluoro-3-[5-(2-methoxy-pyrimidin-5-yl)-1H-pyrrolo[2,3-b]pyridine-3-carbonyl]-phenyl}-4-fluoro-benzenesulfonamide]
≥ 5.00: B-Raf | B-Raf V600E | Src | TEC | C-Raf | PI3Kα

CS(=O)(=O)c1cccc(-c2cnc3[nH]cc(C(=O)c4cccc(NS(=O)(=O)c5cccnc5)c4)c3c2)c1 [P-2149, Pyridine-3-sulfonic acid {3-[5-(3-methanesulfonyl-phenyl)-1H-pyrrolo[2,3-b]pyridine-3-carbonyl]-phenyl}-amide]
≥ 5.00: B-Raf | Fms | Kdr | Kit | Src | PI3Kα | MAP4K4

CCCS(=O)(=O)Nc1ccc(F)c(C(=O)c2c[nH]c3ncc(-c4ccc(O)nc4)cc23)c1F [P-2234, Propane-1-sulfonic acid {2,4-difluoro-3-[5-(6-hydroxy-pyridin-3-yl)-1H-pyrrolo[2,3-b]pyridine-3-carbonyl]-phenyl}-amide]
not listed: Btk | TEC
≥ 5.00: all other assays above

C#Cc1cnc2[nH]cc(C(=O)c3c(F)ccc(NS(=O)(=O)CCC)c3F)c2c1 [P-2260, Propane-1-sulfonic acid [3-(5-ethynyl-1H-pyrrolo[2,3-b]pyridine-3-carbonyl)-2,4-difluoro-phenyl]-amide]
not listed: MAP4K4 | PI3Kα
≥ 5.00: all other assays above

COc1ncc(-c2cnc3[nH]cc(C(=O)c4c(F)ccc(NS(=O)(=O)CC(F)(F)F)c4F)c3c2)cn1 [P-2342, 2,2,2-Trifluoro-ethanesulfonic acid {2,4-difluoro-3-[5-(2-methoxy-pyrimidin-5-yl)-1H-pyrrolo[2,3-b]pyridine-3-carbonyl]-phenyl}-amide]
≥ 5.00: B-Raf | B-Raf V600E | Src | TEC | C-Raf | PI3Kα

Cc1cnc2[nH]cc(C(=O)c3c(F)ccc(NS(=O)(=O)N4CCCC4)c3F)c2c1 [P-2379, Pyrrolidine-1-sulfonic acid [2,4-difluoro-3-(5-methyl-1H-pyrrolo[2,3-b]pyridine-3-carbonyl)-phenyl]-amide]
not listed: Fms | MAP4K4 | PI3Kα
≥ 5.00: all other assays above

CN(C)S(=O)(=O)Nc1ccc(F)c(C(=O)c2c[nH]c3nccc(Cl)c23)c1F [P-2383, N,N-dimethylamino-sulfonic acid [3-(4-chloro-1H-pyrrolo[2,3-b]pyridine-3-carbonyl)-2,4-difluoro-phenyl]-amide]
not listed: A-Raf | PI3Kα
≥ 5.00: all other assays above

N#Cc1ccnc2[nH]cc(C(=O)c3c(F)ccc(NS(=O)(=O)N4CCCC4)c3F)c12 [P-2394, Pyrrolidine-1-sulfonic acid [3-(4-cyano-1H-pyrrolo[2,3-b]pyridine-3-carbonyl)-2,4-difluoro-phenyl]-amide]
not listed: Fms | Kit | MAP4K4 | PI3Kα
≥ 5.00: all other assays above

CS(=O)(=O)c1cccc(-c2cnc3[nH]cc(C(=O)c4cc(NS(=O)(=O)C5CCCCC5)ccc4F)c3c2)c1 [P-2444, Cyclohexanesulfonic acid {4-fluoro-3-[5-(3-methanesulfonyl-phenyl)-1H-pyrrolo[2,3-b]pyridine-3-carbonyl]-phenyl}-amide]
not listed: A-Raf | PI3Kα
≥ 5.00: all other assays above

CS(=O)(=O)Nc1cccc(-c2cnc3[nH]cc(C(=O)c4cc(NS(=O)(=O)C5CCCC5)ccc4F)c3c2)c1 [P-2447, Cyclopentanesulfonic acid {4-fluoro-3-[5-(3-methanesulfonylamino-phenyl)-1H-pyrrolo[2,3-b]pyridine-3-carbonyl]-phenyl}-amide]
not listed: A-Raf | PI3Kα
≥ 5.00: all other assays above
